From US20160000762A1, “IMPROVING COGNITIVE FUNCTION” (THE REGENTS OF THE UNIVERSITY OF CALIFORNIA, priority 2013, published 2016)

What was measured:
[1] = system: primary hippocampal neurons; test: Synaptic marker immunostaining, primary hippocampal neurons; type: cell-based, Sprague-Dawley rats; settings: 5 μM, 24 h
Protocol: Primary neuron culture and immunostaining. Primary hippocampal neurons from E19 Sprague-Dawley rats were cultured at 150 cells/mm^2 as previously described (Pak et al., 2001). Neurons were transfected using Lipofectamine™ 2000 (Invitrogen, Carlsbad, Calif., USA) or calcium phosphate precipitation with GFP+PLL, GFP+APP shRNA, or GFP+APP and treated with BTA-EG4. The following antibodies were used: mouse anti-GFP (Novus Biologicals, 9F9.F9), rabbit anti-GFP (Invitrogen, A11122), rabbit anti-GluR1 (Calbiochem, PC246), mouse anti-GluR2 (BD Pharmagen, 556341), mouse anti-postsynaptic density (PSD)-95 (NeuroMabs, Davis, Calif., USA), mouse anti-Synaptophysin (Sigma Aldrich, s5768), rabbit APP N-terminal (Sigma-Aldrich, A8967), anti-Ras (BD Biosciences, 610001), anti-RasGRF1 (Santa Cruz, C-20; BD Biosciences, 610149), anti-ERK1/2 (Cell Signaling, 4695), anti-p-ERK1/2 (Invitrogen, 36880), anti-CREB (Cell Signaling, D76D11), anti-p-CREB (Millipore, 06-519), and mouse anti-c-Myc (Novus Biologicals, 9E10). Cultured hippocampal neuron images were acquired by LSM 510 laser scanning confocal microscope (Zeiss). Confocal zseries image stacks encompassing entire dendrite segments were analyzed using MetaMorph software (Universal Imaging Corporation, Downington, Pa., USA). […]

[2] = system: insulin-degrading enzyme (IDE), neprilysin (NPE); test: Levels of Aβ degradation enzymes (data not shown)
dendritic spines = test: Golgi staining, dendritic spine density and morphology in 3× Tg AD mice; type: in vivo
Protocol: Golgi staining and morphological analysis of dendritic spines. Dendritic spine density and morphology analyses in the brain were conducted using the FD RAPID GOLGISTAIN KIT™ (FD NeuroTechnologies, Ellicott City, Md., USA). Mouse brains were dissected, immersed in Solutions A and B (2 weeks, room temperature, dark conditions), and then transferred to Solution C (24 h, 4° C.). A VT1000S Vibratome (Leica, Bannockburn, Ill., USA) was then used to slice brains 150 μm thick. Bright-field microscopy acquired dendritic images by Axioplan 2 (Zeiss, Oberkochen, Germany). Scion image software (Scion Corporation, Frederick, Md., USA) allowed measurement of spine head width, spine length, and linear density of cortical layers II/III and CA1 of the hippocampus. Images were coded and analyzed blind to experimental conditions. To measure dendritic spine density, we included spines from 0.2 to 2 μmin length, with at least 25 apical oblique (AO) and basal (BS) dendritic observations averaged from each animal (n=4-5 brains for 2-3 months old/group and 6-10 months old/group, n=3 brains for 13-16 months old/group). To measure spine morphology, we included spines up to 1.4 μm in width and 3.2 μm in length.
BTA-EG4 alters dendritic spine density in the cortex and hippocampus. […] In the present study, we investigated whether BTA-EG4 improves dendritic spine density in a mouse model of AD. For this study, we selected the 3× Tg AD mouse model due to its ability to model the progression of human AD (Oddo et al., 2003). […] To assess its effectiveness throughout disease progression, 2-3 month, 6-10 month, and 13-16 month old 3× Tg AD mice were injected with BTA-EG4 (30 mg/kg, i.p.) or vehicle (10% DMSO) daily for 2 weeks. The 2-week duration of treatment was selected because it increased dendritic spine density and improved memory in wild-type mice (Megill et al., 2013). After the treatment, we conducted Golgi staining to measure dendritic spine density (FIGS. 10A-10J, FIGS. 15A-15H and FIGS. 16A-16B).

[3] = Fear conditioning, wild-type mice; type: in vivo; settings: 30 mg/kg daily for 2 weeks
Protocol: Fear conditioning. Before initiating fear-conditioning tests, wild-type mice were injected daily with BTA-EG4 or vehicle for 2 weeks (n=8/group). Mice were subsequently trained by exposure to a conditioning box (context) for 3 min before administering a tone (18 s) and footshock (2 s), which were repeated twice at 1 min intervals. We performed the contextual test 24 h after training by re-exposing the mice to the conditioning context. A measurement of freezing behavior was recorded every minute for 3 min inside of the conditioning box. The cued test was conducted 3 h following the contextual test. Following a 3 min reexposure to the conditioning box, a tone (18 s) was administered and freezing behavior was measured for 1 min.

## BTA-EG4
[1]
  number of puncta stained for PSD-95: increased
  number of puncta stained for synaptophysin: increased
[2]
  levels of Aβ degradation enzymes (IDE, NPE): did not alter
Dendritic spines; 13-16 months
  dendritic spine length: neither the width nor length of dendritic spines changed
  dendritic spine width: neither the width nor length of dendritic spines changed
Dendritic spines; CA1, 13-16 months, 30 mg/kg daily, 2 weeks
  hippocampal spine density: only a trend toward an increase
Dendritic spines; cortex and hippocampus, 6-10 months, 30 mg/kg
  dendritic spine width: wider
Dendritic spines; cortical layers II/III and hippocampus, 6-10 months, 30 mg/kg
  dendritic spine length: longer
Dendritic spines; cortical neurons, 13-16 months, 30 mg/kg i.p. daily, 2 weeks
  dendritic spine density: improved
Dendritic spines; hippocampus CA1, 2-3 months, 30 mg/kg i.p. daily, 2 weeks
  overall density of dendritic spines: significantly increased
Dendritic spines; hippocampus CA1, 6-10 months, 30 mg/kg i.p. daily, 2 weeks
  overall density of dendritic spines: significantly increased
Dendritic spines; layers II/III of the cortex, 2-3 months, 30 mg/kg i.p. daily, 2 weeks
  overall density of dendritic spines: significantly increased
Dendritic spines; layers II/III of the cortex, 6-10 months, 30 mg/kg i.p. daily, 2 weeks
  overall density of dendritic spines: significantly increased
[3]
  freezing, contextual test: significantly increased
  freezing, cued test: significantly increased
